# According to patent US20080221021A1, “Novel Corticotropin-Releasing Factor Receptor 1 (Crfr1) Agonist” (Max-Planck-Gesellschaft Zur Forderung Der, priority 2004, published 2008):
# Entries after “also recorded” stand apart in the source; their conditions may differ. Where no end group is shown, it is not given here.
# How the values were obtained:
# CRFR1 = conditions: cited from earlier work
# rCRFR1 [1] = target: T1, rCRFR1 (Rattus norvegicus, UniProt P35353); assay: Competition binding scintillation proximity assay, rCRFR1 membranes; conditions: for selectivity for CRFR1: CRFR1 vs CRFR2, in words
# T1 construct: expressed in transfected cells
# T1 sequence (P35353 24-415): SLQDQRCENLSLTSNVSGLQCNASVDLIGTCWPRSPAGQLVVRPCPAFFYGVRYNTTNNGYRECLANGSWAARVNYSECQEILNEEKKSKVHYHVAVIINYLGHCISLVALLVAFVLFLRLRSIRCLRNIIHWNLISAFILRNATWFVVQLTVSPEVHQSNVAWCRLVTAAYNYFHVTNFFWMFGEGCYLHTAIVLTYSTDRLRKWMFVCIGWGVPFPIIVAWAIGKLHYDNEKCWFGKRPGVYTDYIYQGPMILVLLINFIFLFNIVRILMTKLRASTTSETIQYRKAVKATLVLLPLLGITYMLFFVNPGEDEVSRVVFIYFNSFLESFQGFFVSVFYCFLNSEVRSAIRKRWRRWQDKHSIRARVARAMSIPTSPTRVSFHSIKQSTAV
# Method: (§1) Crude membrane fractions were prepared from human embryonic kidney (HEK) 293 cells stably expressing either cloned rat CRFR1α(rCRFR1) or mouse CRFR2β (mCRFR2β) as described (20). Rat CRFBP (rCRFBP) was produced in HEK 293 cells stably transfected with cDNA coding for rCRFBP C-terminally fused with a His6 sequence as described (36). The scintillation proximity assays (SPA) for binding analysis of CRFR and CRFBP have been already described in detail (21, 22). For competition binding assays of rCRFR1 and rCRFBP, [^125I-Tyr^0]h/rCRF was used as radiolabeled peptide, whereas [^125I-Tyr^0]Svg was employed for mCRFR2β.
# rCRFR1 [2] = target: T1, rCRFR1; assay: Agonist-induced intracellular cAMP accumulation in HEK 293 cells producing rCRFR1; format: cell-based; conditions: ratio of biological potencies (cAMP)
# Method: The biological potency of cortagine and OCRF was evaluated by the determination of the EC50 values for agonist-induced intracellular accumulation of cAMP in HEK 293 cells producing either rCRFR1 or mCRFR2β.
# The HEK 293 cells were plated into 24 well cell culture plates and stimulated as described (21) using increasing concentrations of the agonists under investigation. Intracellular cAMP was measured with the Biotrak™ cAMP [^125I] SPA system (Amersham Pharmacia Biotech) according to the manufacturer's product manual.
# [3] = Maximum solubility in aCSF by amino acid analysis; format: physicochemical; conditions: aCSF, pH 7.4; read-out: maximal solubility cmax
# Method: After dissolving the peptides in artificial cerebrospinal fluid (aCSF; 124 mM NaCl, 26.4 mM NaHCO3, 10 mM glucose, 3.3 mM KCl, 2.5 mM CaCl2 , 2.4 mM MgSO4 , 1.2 mM KH2PO4) at pH=7.4, the maximum solubility cmax was determined by amino acid analysis as described (21). The isoelectric point of the peptides was determined by isoelectric focusing (IEF) as described (21) with a Bio-Rad IEF cell system using Bio-Rad IEF strips in the pH range 3-10.
# [4] = format: physicochemical
# Method: A high solubility under physiological conditions is a crucial prerequisite especially for compounds to be injected into the rodent brain. […] Both peptides were soluble in a concentration range of up to 1000 μM (FIG. 6), so that there was no limitation in view of the agonist doses typically used in behavioral experiments. […] Consequently, solutions of cortagine to be used in the pharmacological assays were prepared in phosphate buffered saline (PBS; pH=7.4).
# mCRFR2β = target: T2, mCRFR2β (Mus musculus, UniProt Q60748); assay: Competition binding scintillation proximity assay, mCRFR2β membranes; conditions: for affinity for CRFR2: binding analysis, in words
# T2 construct: expressed in transfected cells
# Method: as §1
# rCRFBP = target: T3, rCRFBP (Rattus norvegicus, UniProt P24388); assay: Competition binding scintillation proximity assay, rCRFBP; conditions: binding analysis, in words
# T3 construct: His6 (C); made in house; host or cells: HEK 293 cells, stably transfected
# T3 sequence (P24388 25-322): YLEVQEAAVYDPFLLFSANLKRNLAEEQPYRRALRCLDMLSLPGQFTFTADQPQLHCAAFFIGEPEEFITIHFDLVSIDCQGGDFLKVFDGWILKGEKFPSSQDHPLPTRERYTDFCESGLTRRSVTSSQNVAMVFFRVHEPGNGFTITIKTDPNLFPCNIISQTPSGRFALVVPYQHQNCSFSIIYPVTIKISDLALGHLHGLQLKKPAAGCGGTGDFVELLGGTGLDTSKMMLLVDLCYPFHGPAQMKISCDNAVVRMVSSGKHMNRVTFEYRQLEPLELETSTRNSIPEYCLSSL
# Method: as §1
# C57BL/6J mice = assay: Elevated plus-maze test, intraseptal (i.s.) injection; format: in vivo, mouse; conditions: 400 ng aSvg-30 i.s. 15 min before oCRF
# Method: Nine-week old male C57BL/6J (Centre D'Elevage Janvier, Sultzfeld, France) were individually housed in macrolon cages according to the recommendations of the Society for Laboratory Animal Science (Germany). All experiments were carried out in accordance with the European Council Directive (86/609/EEC) with the permission of the Animal Protection Law enforced by the District Government of Braunschweig, State of Lower Saxony, Germany, which is in full agreement with the APA ethical guidelines. All efforts were made to minimize animal suffering. The number of mice per group was 9-11.
# All peptides were dissolved in aCSF except for the CRFR2-selective antagonist antisauvagine-30 (aSvg-30) (20) that was initially dissolved in 10 mM aqueous acetic acid and diluted with the same volume of two-fold concentrated aCSF. The final pH of the peptide solutions was 7.4. The exact peptide concentration of the injection solutions was determined by amino acid analysis with a Beckman HPLC analyzer system 6300. […]
# The elevated plus-maze (EPM) behavior of C57BL/6J mice cannulated in the lateral ventricles or lateral intermediate septal area (23) was investigated 30 min after injection of the CRFR1 agonist under investigation for 5 min in the EPM test (24). […] The behavior of the mice was recorded by a video camera connected to a PC and analyzed by the Technical & Scientific Equipment software VIDEOMOT 2. […]
# T2 sequence (Q60748 1-431 isoform Q60748-2): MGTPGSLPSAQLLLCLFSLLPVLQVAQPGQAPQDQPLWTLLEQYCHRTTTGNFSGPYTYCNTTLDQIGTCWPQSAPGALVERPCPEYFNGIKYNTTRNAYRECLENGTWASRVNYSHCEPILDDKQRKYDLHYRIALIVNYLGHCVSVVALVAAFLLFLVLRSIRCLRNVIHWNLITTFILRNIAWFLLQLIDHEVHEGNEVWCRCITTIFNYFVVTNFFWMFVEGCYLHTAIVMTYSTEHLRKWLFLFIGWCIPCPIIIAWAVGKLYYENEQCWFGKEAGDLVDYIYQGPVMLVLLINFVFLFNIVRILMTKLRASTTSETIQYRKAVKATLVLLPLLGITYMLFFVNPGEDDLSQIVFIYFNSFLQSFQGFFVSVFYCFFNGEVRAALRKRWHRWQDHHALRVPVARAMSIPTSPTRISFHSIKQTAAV
compound,measurement,setting,value
"CCCCN(CC)c1nc(C)nc2c1c(C)cn2-c1c(C)cc(C)cc1C [CP-154,526]",locomotion in the EPM test,CRFR1,nonspecific increase in locomotion
"CC[C@H](C)[C@H](NC(=O)[C@@H](NC(=O)[C@H](CC(=O)O)NC(=O)[C@H](CC(C)C)NC(=O)[C@H](CC(C)C)NC(=O)[C@H](CC(C)C)NC(=O)[C@H](CCCNC(=N)N)NC(=O)[C@H](CC(N)=O)NC(=O)[C@H](CC(N)=O)NC(=O)[C@H](C)NC(=O)[C@H](C)NC(=O)[C@H](CCC(N)=O)NC(=O)[C@H](CCC(N)=O)NC(=O)[C@H](CCCCN)NC(=O)[C@H](CCC(=O)O)NC(=O)[C@H](CCCCN)NC(=O)[C@H](CCC(=O)O)NC(=O)[C@H](CCC(N)=O)NC(=O)[C@H](CCCCN)NC(=O)[C@H](CCC(=O)O)NC(=O)[C@@H](NC(=O)[C@H](CCC(=O)O)NC(=O)[C@@H](NC(=O)[C@H](CCSC)NC(=O)[C@H](CCCCN)NC(=O)[C@H](CCCNC(=N)N)NC(=O)[C@H](CC(C)C)NC(=O)[C@H](CC(C)C)NC(=O)[C@H](CCC(=O)O)NC(=O)[C@H](CC(C)C)NC(=O)[C@H](CO)NC(=O)[C@H](CC(C)C)NC(=O)[C@H](CC(=O)O)NC(=O)[C@@H](NC(=O)[C@H](CO)NC(=O)[C@@H](NC(=O)[C@@H]1CCCN1C(=O)[C@@H]1CCCN1C(=O)CNC(=O)[C@@H]1CCC(=O)N1)[C@@H](C)CC)[C@@H](C)CC)[C@@H](C)CC)[C@@H](C)CC)[C@@H](C)O)C(N)=O [Svg, sauvagine, reference compound]",selectivity for CRFR1,rCRFR1 [1]; binding analysis,non-selective
"CC[C@H](C)[C@H](NC(=O)[C@H](CC(=O)O)NC(=O)[C@H](CC(C)C)NC(=O)[C@H](CC(C)C)NC(=O)[C@H](CCCCN)NC(=O)[C@H](CCCNC(=N)N)NC(=O)[C@H](CC(N)=O)NC(=O)[C@H](CO)NC(=O)[C@H](Cc1c[nH]cn1)NC(=O)[C@H](C)NC(=O)[C@H](CCC(N)=O)NC(=O)[C@H](CCC(N)=O)NC(=O)[C@H](C)NC(=O)[C@H](CC(C)C)NC(=O)[C@H](CCC(N)=O)NC(=O)[C@H](CC(=O)O)NC(=O)[C@H](C)NC(=O)[C@H](CCCCN)NC(=O)[C@@H](NC(=O)[C@H](CCSC)NC(=O)[C@H](CCC(=O)O)NC(=O)[C@H](CC(C)C)NC(=O)[C@@H](NC(=O)[C@H](CCC(=O)O)NC(=O)[C@H](CCCNC(=N)N)NC(=O)[C@H](CC(C)C)NC(=O)[C@H](CC(C)C)NC(=O)[C@H](Cc1c[nH]cn1)NC(=O)[C@H](Cc1ccccc1)NC(=O)[C@@H](NC(=O)[C@H](CC(C)C)NC(=O)[C@H](CC(=O)O)NC(=O)[C@H](CC(C)C)NC(=O)[C@H](CO)NC(=O)[C@@H](NC(=O)[C@@H]1CCCN1C(=O)[C@@H]1CCCN1C(=O)[C@H](CCC(=O)O)NC(=O)[C@H](CCC(N)=O)NC(=O)[C@@H](N)CO)[C@@H](C)CC)[C@@H](C)O)C(C)C)[C@@H](C)O)C(=O)N[C@@H](C)C(N)=O [oCRF, ovine CRF, reference compound]","CRFR1-selectivity over CRFR2β, IC50(mCRFR2)/IC50(rCRFR1)",rCRFR1 [1]; ratio of binding affinities,89
same,"CRFR1-selectivity over CRFR2β, EC50(mCRFR2)/EC50(rCRFR1)",rCRFR1 [2],19
same,solubility,[3],≤ 1000 µM
same,solubility in 10 mM aqueous acetic acid,[4],soluble in 10 mM aqueous acetic acid
[Ala^40] [Svg^1-12]x[h/rCRF^14-30]x[Svg^30-40] [compound 8],selectivity for CRFR1,rCRFR1 [1]; binding analysis,highly selective for CRFR1
same,change in affinity to CRFR1 in comparison to parent peptide,"rCRFR1 [1]; compound 8 vs compound 6, compound 9 vs compound 8, Nle20 analog vs compound 9",more than five-fold increase
same,change in affinity for CRFR2 in comparison to parent peptide,"mCRFR2β; compound 8 vs compound 6, compound 9 vs compound 8",only a slight increase
same,affinity to CRFBP,rCRFBP,high affinity
"[Ala^41]h/rCRF (SEEPPISLDLTFHLLREVLEMARAEQLAQQAHSNRKLMEIA; ends and bridges not checked; UniProt P06850 154-194, looked up, variant I41A) [h/rCRF analog with Ala in position 41]",selectivity for CRFR1 in comparison to h/rCRF,rCRFR1 [1]; binding analysis,increase in CRFR1 selectivity by a factor of three
[Svg^1-12 ]x[h/rCRF^14-30]x[Svg^30-40] (QGPPISIDLSLELLREVLEMARAEQLAQQAANNRLLLDTI; not fully specified (residue 1); ends and bridges not checked) [compound 6],selectivity for CRFR1,rCRFR1 [1]; binding analysis,selective for CRFR1
same,affinity for CRFR2,mCRFR2β,low affinity to CRFR2
"[Svg^1-29]x[h/rCRF^31-41] (QGPPISIDLSLELLRKMIEIEKQEKEKQQAHSNRKLMEII; ends and bridges not checked) [compound 7, chimeric peptide of h/rCRF and Svg domains]",selectivity for CRFR1,rCRFR1 [1]; binding analysis,not
"[h/rCRF^1-13]x[Svg^13-29]x[h/rCRF^31-41] (SEEPPISLDLTFHLLRKMIEIEKQEKEKQQAHSNRKLMEII; ends and bridges not checked) [compound 4, chimeric peptide of h/rCRF and Svg domains]",selectivity for CRFR1,rCRFR1 [1]; binding analysis,not
same,affinity for CRFR2,mCRFR2β,not
"[h/rCRF^1-30]x[Svg^30-40] (SEEPPISLDLTFHLLREVLEMARAEQLAQQAANNRLLLDTI; ends and bridges not checked) [compound 5, chimeric peptide of h/rCRF and Svg domains]",selectivity for CRFR1,rCRFR1 [1]; binding analysis,clear selectivity for CRFR1
same,affinity for CRFR2,mCRFR2β,low affinity
anti-sauvagine-30 [aSvg-30],antagonism of anxiogenic effects of 100 ng oCRF,C57BL/6J mice,completely prevented; also recorded: fully antagonized
